Structures can show the parent of a compound that is named as a salt.

The values that follow come from US7875619B2, “Hetero substituted sodium channel blockers” (Parion Sciences, Inc., priority 2004, dated 2011).

This assay has as its target T1, sodium channel (ENaC), canine bronchial epithelia (Canis lupus familiaris, UniProt A0A8I3MKE6+A0A8I3Q679+Q95165).
T1 construct: endogenous in cells; host or cells: primary canine bronchial epithelial cells cultured at air-liquid interface, mounted in Ussing chambers
T1 sequence (A0A8I3Q679 1-649): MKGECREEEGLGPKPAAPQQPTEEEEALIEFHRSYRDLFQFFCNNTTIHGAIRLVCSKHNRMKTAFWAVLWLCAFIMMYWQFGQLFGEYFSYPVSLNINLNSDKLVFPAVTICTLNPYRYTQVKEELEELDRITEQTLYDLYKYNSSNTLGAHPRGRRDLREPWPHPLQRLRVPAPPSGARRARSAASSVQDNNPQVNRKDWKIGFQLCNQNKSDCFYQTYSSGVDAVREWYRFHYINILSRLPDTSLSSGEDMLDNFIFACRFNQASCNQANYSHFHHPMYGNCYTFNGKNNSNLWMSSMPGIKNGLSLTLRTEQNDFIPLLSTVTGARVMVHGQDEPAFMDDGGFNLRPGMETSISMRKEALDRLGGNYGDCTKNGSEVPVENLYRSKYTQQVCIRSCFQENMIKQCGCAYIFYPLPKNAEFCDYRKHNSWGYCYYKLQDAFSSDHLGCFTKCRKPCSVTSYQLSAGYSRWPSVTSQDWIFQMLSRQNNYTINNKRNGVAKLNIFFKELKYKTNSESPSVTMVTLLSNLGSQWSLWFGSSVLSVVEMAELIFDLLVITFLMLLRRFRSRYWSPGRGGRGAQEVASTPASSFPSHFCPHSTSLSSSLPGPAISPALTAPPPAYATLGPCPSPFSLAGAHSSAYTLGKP
T1 sequence (Q95165 1-641): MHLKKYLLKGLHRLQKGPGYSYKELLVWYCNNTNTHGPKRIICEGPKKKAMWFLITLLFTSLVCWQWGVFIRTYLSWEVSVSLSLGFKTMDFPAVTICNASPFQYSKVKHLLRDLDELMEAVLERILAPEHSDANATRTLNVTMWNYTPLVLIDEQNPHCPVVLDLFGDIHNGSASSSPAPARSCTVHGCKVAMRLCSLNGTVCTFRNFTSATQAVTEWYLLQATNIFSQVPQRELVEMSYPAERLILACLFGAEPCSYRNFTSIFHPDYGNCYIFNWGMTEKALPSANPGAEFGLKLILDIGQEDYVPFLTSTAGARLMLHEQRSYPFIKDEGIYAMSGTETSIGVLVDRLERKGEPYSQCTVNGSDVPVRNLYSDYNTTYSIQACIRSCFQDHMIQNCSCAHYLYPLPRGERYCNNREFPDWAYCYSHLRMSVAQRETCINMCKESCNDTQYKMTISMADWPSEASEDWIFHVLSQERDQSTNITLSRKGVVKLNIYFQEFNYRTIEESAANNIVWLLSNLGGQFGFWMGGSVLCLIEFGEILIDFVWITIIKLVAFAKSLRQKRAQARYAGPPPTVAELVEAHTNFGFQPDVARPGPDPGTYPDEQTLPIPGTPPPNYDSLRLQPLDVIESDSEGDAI
T1 sequence (A0A8I3MKE6 1-646): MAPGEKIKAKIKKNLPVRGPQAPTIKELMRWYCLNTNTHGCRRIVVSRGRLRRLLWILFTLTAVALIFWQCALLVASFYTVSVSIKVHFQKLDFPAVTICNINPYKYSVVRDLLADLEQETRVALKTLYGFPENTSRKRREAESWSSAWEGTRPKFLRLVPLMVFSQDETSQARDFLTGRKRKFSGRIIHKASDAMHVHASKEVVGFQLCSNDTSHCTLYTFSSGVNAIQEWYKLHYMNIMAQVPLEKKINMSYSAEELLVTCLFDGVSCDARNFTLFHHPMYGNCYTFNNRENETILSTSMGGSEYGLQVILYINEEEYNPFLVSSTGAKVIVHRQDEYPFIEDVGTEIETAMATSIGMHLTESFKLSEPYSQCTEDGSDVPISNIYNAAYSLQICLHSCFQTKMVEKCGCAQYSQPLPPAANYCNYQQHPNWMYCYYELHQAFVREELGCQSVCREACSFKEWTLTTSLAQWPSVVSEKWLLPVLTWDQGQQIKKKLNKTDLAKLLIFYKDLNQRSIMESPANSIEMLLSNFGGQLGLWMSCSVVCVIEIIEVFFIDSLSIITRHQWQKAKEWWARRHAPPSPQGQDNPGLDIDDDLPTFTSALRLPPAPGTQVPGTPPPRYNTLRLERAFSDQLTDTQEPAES
The assay can be described thus: In vitro measure of sodium channel blocking activity: inhibition of short circuit current (ISC) in airway epithelial monolayers in Ussing chambers. The class given is cell-based. The conditions noted are these: mean of N runs; for Fold Amiloride** (PSA 4022 = 100) Mean: relative potency for PSA 4022 = 100 using EC50 from PSA 4022 in same run. How it is done:
One assay used to assess mechanism of action and/or potency of the compounds of the present invention involves the determination of lumenal drug inhibition of airway epithelial sodium currents measured under short circuit current (ISC) using airway epithelial monolayers mounted in Ussing chambers. Cells obtained from freshly excised human, dog, sheep or rodent airways are seeded onto porous 0.4 micron Snapwell™ Inserts (CoStar), cultured at air-liquid interface (ALI) conditions in hormonally defined media, and assayed for sodium transport activity (ISC) while bathed in Krebs Bicarbonate Ringer (KBR) in Using chambers. All test drug additions are to the lumenal bath with half-log dose addition protocols (from 1×10^−11 M to 3×10^−5M), and the cumulative change in ISC (inhibition) recorded. All drugs are prepared in dimethyl sulfoxide as stock solutions at a concentration of 1×10^−2 M and stored at −20° C. […] After the maximal concentration (5×10^−5 M) is administered, the lumenal bath is exchanged three times with fresh drug-free KBR solution, and the resultant ISC measured after each wash for approximately 5 minutes in duration. Reversibility is defined as the percent return to the baseline value for sodium current after the third wash. All data from the voltage clamps are collected via a computer interface and analyzed off-line.
Dose-effect relationships for all compounds are considered and analyzed by the Prism 3.0 program.
PSA 4022 was also tested in each assay as a positive control.

Regarding `C[N+](C)(C)CCOc1ccc(CCCCNC(=N)NC(=O)c2nc(Cl)c(N)nc2N)cc1.Cl.[Cl-]` [PSA 11223, N-(3,5-diamino-6-chloropyrazine-2-carbonyl)-N′-{4-[4-(2-chlorotrimethylammonium)ethoxyphenyl]butyl}guanidine hydrochloride], the response was half-maximal at 14.7 nM (EC50) and the “Fold Amiloride** (PSA 4022 = 100) Mean” value is on record as 79.6.

With `N=C(NCCCCc1ccc(NCCN)cc1)NC(=O)c1nc(Cl)c(N)nc1N` [PSA 16436, N-{4-[4-(2-aminoethylamino)phenyl]butyl}-N′-(3,5-diamino-6-chloropyrazine-2-carbonyl)guanidine], the EC50 came out at 15.4 nM and the “Fold Amiloride** (PSA 4022 = 100) Mean” value turned out to be 35.6.

Turning to `N=C(NCCCCc1ccc(NCCNC[C@@H](O)CO)cc1)NC(=O)c1nc(Cl)c(N)nc1N` [PSA 16721, N-(4-{4-[{2-[((2R)-2,3-dihydroxypropyl)amino]ethylamino}phenyl)butyl-N′-(3,5-diamino-6-chloropyrazine-2-carbonyl)guanidinetrihydrochloride], it took 25.4 nM to reach a half-maximal effect (EC50) and the “Fold Amiloride** (PSA 4022 = 100) Mean” value amounted to 44.7.

Take `N=C(NCCCCc1ccc(OC[C@H](N)C(=O)O)cc1)NC(=O)c1nc(Cl)c(N)nc1N` (stereo in doubt) [PSA 10941, 2-amino-3-(4-{4-[N′-(3,5-diamino-6-chloropyrazine-2-carbonyl)-guanidino]butyl}phenoxy)propionic acid]: it took 32.1 nM to reach a half-maximal effect (EC50) and the “Fold Amiloride** (PSA 4022 = 100) Mean” value is reported as 30.0.

With `N=C(NCCCCc1ccc(NCCCC(=O)O)cc1)NC(=O)c1nc(Cl)c(N)nc1N` [PSA 18345, 4-(4-{4-[N′-(3,5-diamino-6-chloropyrazine-2-carbonyl)guanidino]-butyl}phenylamino)butyric acid], the EC50 stood at 69 nM and the “Fold Amiloride** (PSA 4022 = 100) Mean” value is on record as 12 .4.

`Cl.N=C(N)NCCNC(=O)c1ccc(CCCCNC(=N)NC(=O)c2nc(Cl)c(N)nc2N)cc1` [PSA 11834, 4-{4-[N′-(3,5-diamino-6-chloropyrazine-2-carbonyl)guanidino]butyl}-N-(2-guanidinoethyl)benzamide hydrochloride]: it took 3.68 nM to reach a half-maximal effect (EC50) and the “Fold Amiloride** (PSA 4022 = 100) Mean” value was 276.

On to `N=C(N)NCCC(=O)Nc1ccc(CCCCNC(=N)NC(=O)c2nc(Cl)c(N)nc2N)cc1` [PSA 14984, N-(4-{4-[N′-(3,5-diamino-6-chloropyrazine-2-carbonyl)guanidino]-butyl}phenyl)-3-guanidinopropionamide dihydrochloride], for which a half-maximal effect (EC50) was put at 3.27 nM and the “Fold Amiloride** (PSA 4022 = 100) Mean” value came to 268.

Consider `N=C(NCCCCc1ccc(N(CCN(C[C@H](O)CO)C[C@H](O)CO)C[C@H](O)CO)cc1)NC(=O)c1nc(Cl)c(N)nc1N` [PSA 16311, N-(4{4-[{2-[N,N-bis-((2S)-2,3-dihydroxypropyl)amino]ethyl}-N-((2S)-2,3-dihydroxypropyl)amino]phenyl}butyl)-N′-(3,5-diamino-6-chloropyrazine-2-carbonyl)guanidine], for which it took 33.2 nM to reach a half-maximal effect (EC50) and the “Fold Amiloride** (PSA 4022 = 100) Mean” value is given as 25.6.

For `N=C(NCCCCc1ccc(NC[C@@H](O)CO)cc1)NC(=O)c1nc(Cl)c(N)nc1N` [PSA 16722, N-(3,5-diamino-6-chloropyrazine-2-carbonyl)-N′-{4-[4-((2R)-2,3-dihydroxypropylamino)phenyl]butyl}guanidine], a half-maximal effect (EC50) was put at 22.8 nM and the “Fold Amiloride** (PSA 4022 = 100) Mean” value is 50.5.

Take `N=C(NCCCCc1ccc(C(=O)NCCN)cc1)NC(=O)c1nc(Cl)c(N)nc1N` [PSA 11698, 4-{4-[N-(3,5-diamino-6-chloropyrazine-2-carbonyl)guanidino]butyl}-N-(2-aminoethyl)benzamide hydrochloride]: the midpoint of the response, the EC50, lay at 5.82 nM and the “Fold Amiloride** (PSA 4022 = 100) Mean” value worked out at 136.

In the case of `CS(=O)(=O)N(c1ccc(CCCCNC(=N)NC(=O)c2nc(Cl)c(N)nc2N)cc1)S(C)(=O)=O` [PSA 10316, N-(3,5-Diamino-6-chloropyrazine-2-carbonyl)-N′-[4-(4-bis(methanesulfonyl)aminophenyl)butyl]guanidine], the EC50 amounted to 9.56 nM and the “Fold Amiloride** (PSA 4022 = 100) Mean” value was determined as 132.

As for `N=C(NCCCCc1ccc(NC(=O)CCN)cc1)NC(=O)c1nc(Cl)c(N)nc1N` [PSA 14568, dihydrochloride], the EC50 came to 3.92 nM and the “Fold Amiloride** (PSA 4022 = 100) Mean” value turned out to be 131.

Consider `COC(=O)C(N)CCOc1ccc(CCCCNC(=N)NC(=O)c2nc(Cl)c(N)nc2N)cc1` (stereo not shown) [PSA 17587, 2-amino-4-(4-{4-[N′-(3,5-diamino-6-chloropyrazine-2-carbonyl)-guanidino]butyl}phenoxy)butyric acid methyl ester hydrochloride], for which it took 19.4 nM to reach a half-maximal effect (EC50) and the “Fold Amiloride** (PSA 4022 = 100) Mean” value is 31.3.

For the compound `N=C(NCCCCc1ccc(SCCC(N)=O)cc1)NC(=O)c1nc(Cl)c(N)nc1N` [PSA 19605, 3-(4-{4-[N′-(3,5-diamino-6-chloropyrazine-2-carbonyl)guanidino]butyl}phenylthio)propionamide], the EC50 was found to be 4.7 nM and the “Fold Amiloride** (PSA 4022 = 100) Mean” value amounted to 145.

In the case of `N=C(NCCCCc1ccc(NCCCC(N)=O)cc1)NC(=O)c1nc(Cl)c(N)nc1N` [PSA 18150, 4-(4-(4-[N′-(3,5-diamino-6-chloropyrazine-2-carbonyl)guanidino]-butyl}phenylamino)butyramide dihydrochloride], the concentration giving a half-maximal response (EC50) amounted to 23.8 nM and the “Fold Amiloride** (PSA 4022 = 100) Mean” value stood at 44.4.

`N=C(NCCCCc1ccc(OCC(=O)N(CCO)CCO)cc1)NC(=O)c1nc(Cl)c(N)nc1N` [PSA 16826, 2-(4-{4-[N′-(3,5-diamino-6-chloropyrazine-2-carbonyl)guanidino]-butyl}phenoxy)-N,N-bis-(2-hydroxyethyl)acetamide]: the 50% effective concentration (EC50) came out at 12.7 nM and the “Fold Amiloride** (PSA 4022 = 100) Mean” value is 64.9.

Consider `Cl.N=C(N)NCC(O)COc1ccc(CCCCNC(=N)NC(=O)c2nc(Cl)c(N)nc2N)cc1` (stereo not shown) [PSA 11975, N-(3,5-diamino-6-chloropyrazine-2-carbonyl)-N′-{4-[4-(3-guanidino-2-hydroxypropoxy)phenyl]butyl}guanidine hydrochloride], for which the EC50 was found to be 4.85 nM and the “Fold Amiloride** (PSA 4022 = 100) Mean” value is recorded as 287.

One may read the EC50 as the midpoint of the concentration-response curve. A higher EC50 goes with a need for much substance.
